Activity calls are given as the source filed them. The calls are words filed in the database; no cut-off is given here.
What was measured:
[1] = system: Drosophila; assay: Protection against fragile X syndrome phenotypes in Fmr1 null mutant Drosophila Fmr1'3/TM6C assessed as embryo viability at 40 uM at 25 degC by flow cytometry relative to untreated homozygous embryos; assay type: functional
[2] = system: Drosophila; assay: Suppression of glutamate-induced beta-lobe midline crossing deffect in mushroom bodies of laboratory prepared food feeded Fmr1 null mutant Drosophila Fmr1'3/TM6C fragile X syndrome model at 80 uM by Fas2 staining based confocal microscopy; assay type: functional, organism-based
[3] = system: Drosophila; assay: Cytoprotection against glutamate-induced toxicity in laboratory prepared food feeded Fmr1 null mutant Drosophila Fmr1'3/TM6C fragile X syndrome model assessed as embryo viability at 80 uM by flow cytometry relative to untreated embryos; assay type: functional, organism-based
[4] = system: Drosophila; assay: Suppression of glutamate-induced courtship behavior deffect in laboratory prepared food feeded male Fmr1 null mutant Drosophila Fmr1'3/TM6C fragile X syndrome model assessed as courtship behavior towards female flies at 80 uM for 10 mins by courtship index assay; assay type: functional, organism-based
[5] = system: Drosophila; assay: Protection against fragile X syndrome phenotypes in laboratory prepared food feeded Fmr1 null mutant Drosophila Fmr1'3/TM6C assessed as homozygous Fmr1-/- embryo viability at 10 uM at 25 degC by flow cytometry relative to untreated homozygous embryos fed with only laboratory prepared food; assay type: functional
[6] = system: Drosophila; assay: Cytoprotection against glutamate-induced toxicity in laboratory prepared food feeded Fmr1 null mutant Drosophila Fmr1'3/TM6C fragile X syndrome model assessed as embryo viability at 40 uM by flow cytometry relative to untreated embryos; assay type: functional, organism-based
[7] = system: Drosophila; assay: Suppression of Futsch protein overexpression in head lysates of laboratory prepared food feeded Fmr1 null mutant Drosophila Fmr1'3/TM6C fragile X syndrome model at 40 uM by Western blot; assay type: functional, organism-based
[8] = system: Drosophila; assay: Cytoprotection against glutamate-induced toxicity in laboratory prepared food feeded Fmr1 null mutant Drosophila Fmr1'3/TM6C fragile X syndrome model assessed as embryo viability at 40 uM in presence of 40 uM GABAB receptor antagonist CGP-54626 by flow cytometry relative to untreated embryos; assay type: functional, organism-based
[9] = system: Drosophila; assay: Protection against fragile X syndrome phenotypes in laboratory prepared food feeded Fmr1 null mutant Drosophila Fmr1'3/TM6C assessed as homozygous Fmr1-/- embryo viability at 40 uM at 25 degC by flow cytometry relative to untreated homozygous embryos fed with only laboratory prepared food; assay type: functional
[10] = system: Drosophila; assay: Protection against fragile X syndrome phenotypes in laboratory prepared food feeded Fmr1 null mutant Drosophila Fmr1'3/TM6C assessed as homozygous Fmr1-/- embryo viability at 5 uM at 25 degC by flow cytometry relative to untreated homozygous embryos fed with only laboratory prepared food; assay type: functional
[11] = system: Drosophila; assay: Suppression of beta-lobe midline crossing deffect in mushroom bodies of laboratory prepared food feeded Fmr1 null mutant Drosophila Fmr1'3/TM6C fragile X syndrome model at by Fas2 staining based confocal microscopy; assay type: functional
[12] = system: Drosophila; assay: Protection against fragile X syndrome phenotypes in laboratory prepared food feeded Fmr1 null mutant Drosophila Fmr1'3/TM6C assessed as homozygous Fmr1-/- embryo viability at 20 uM at 25 degC by flow cytometry relative to untreated homozygous embryos fed with only laboratory prepared food; assay type: functional
[13] = system: Drosophila; assay: Cytoprotection against glutamate-induced toxicity in laboratory prepared food feeded Fmr1 null mutant Drosophila Fmr1'3/TM6C fragile X syndrome model assessed as genetic segregation ratio at 40 uM by flow cytometry relative to untreated embryos; assay type: functional
[14] = system: Drosophila; assay: Suppression of glutamate-induced beta-lobe midline crossing deffect in mushroom bodies of laboratory prepared food feeded Fmr1 null mutant Drosophila Fmr1'3/TM6C fragile X syndrome model at 40 uM by Fas2 staining based confocal microscopy; assay type: functional
[15] = system: Drosophila; assay: Suppression of glutamate-induced Futsch protein overexpression in head lysates of laboratory prepared food feeded Fmr1 null mutant Drosophila Fmr1'3/TM6C fragile X syndrome model at 40 uM by Western blot; assay type: functional, organism-based
[16] = system: Drosophila; assay: Suppression of glutamate-induced courtship behavior deffect in laboratory prepared food feeded male Fmr1 null mutant Drosophila Fmr1'3/TM6C fragile X syndrome model assessed as courtship behavior towards female flies at 40 uM for 10 mins by courtship index assay; assay type: functional, organism-based
[17] = system: Drosophila; assay: Suppression of glutamate-induced beta-lobe midline crossing deffect in mushroom bodies of laboratory prepared food feeded Fmr1 null mutant Drosophila Fmr1'3/TM6C fragile X syndrome model assessed as incidence of severe deffects at 40 uM by Fas2 staining based confocal microscopy; assay type: functional
[18] = system: Drosophila; assay: Cytoprotection against glutamate-induced toxicity in laboratory prepared food feeded Fmr1 null mutant Drosophila Fmr1'3/TM6C fragile X syndrome model assessed as embryo viability at 40 uM in presence of GABAB receptor antagonist CGP-54626 by flow cytometry relative to untreated embryos; assay type: functional
[19] = system: Drosophila; assay: Suppression of Futsch protein overexpression in head lysates of laboratory prepared food feeded Fmr1 null mutant Drosophila Fmr1'3/TM6C fragile X syndrome model at 40 uM in presence of Scopolamine by Western blot; assay type: functional, organism-based

Cl.Cl.NNCc1cccc(O)c1
Activity [1]: 67%

Cc1cccc(C#Cc2ccccc2)n1
Activity [2]: Active | Activity [3]: Active | Activity [4]: Active | Activity [5]: 61.6%

C[C@H](NC[C@H](O)CP(=O)(O)CC1CCCCC1)c1ccc(Cl)c(Cl)c1
Activity [6]: inactive

CC(=O)N[C@@H](CS)C(=O)O [ACETYLCYSTEINE]
Activity [1]: 67%

CN1[C@@H]2CC[C@H]1C[C@@H](OC(c1ccccc1)c1ccccc1N)C2 (stereo not given in full) [AMINOBENZTROPINE]
Activity [7]: Active | Activity [1]: 25% | Activity [8]: Active | Activity [9]: 66.38%

Cc1cc(O)cc(C)c1Cl [CHLOROXYLENOL]
Activity [1]: 42%

CCN(CC)CCOc1ccc(C(=C(Cl)c2ccccc2)c2ccccc2)cc1 [CLOMIPHENE]
Activity [1]: 25% | Activity [10]: 54.96%

CN1CC(=O)NC1=N [CREATININE]
Activity [11]: 69% | Activity [7]: Active | Activity [1]: 58% | Activity [9]: 123.2%

C/C=C(/C(=C/C)c1ccc(O)cc1)c1ccc(O)cc1 [DIENESTROL]
Activity [1]: 33% | Activity [9]: 71.3%

Cl.NCCc1ccc(O)c(O)c1 [DOPAMINE HYDROCHLORIDE]
Activity [1]: 25%

C[C@@H](CO)NC(=O)[C@@H]1C=C2c3cccc4[nH]cc(c34)C[C@H]2N(C)C1.O=C(O)/C=C\C(=O)O [ERGONOVINE MALEATE]
Activity [1]: 33% | Activity [12]: 69.85%

NCCCC(=O)O [GAMMA-AMINOBUTYRIC ACID]
Activity [13]: 33% | Activity [14]: 70% | Activity [1]: 25% | Activity [15]: Active | Activity [16]: Active | Activity [17]: 7% | Activity [18]: 8% | Activity [9]: 83.1% | Activity [6]: Active

O=c1cc(CO)occ1O [KOJIC ACID]
Activity [1]: 25% | Activity [5]: 73.06%

O=C(O)C1CCCNC1 (stereo not given) [NIPECOTIC ACID]
Activity [11]: 69% | Activity [7]: Active | Activity [1]: 58% | Activity [9]: 84.2%

Cl.NCC(=O)c1ccccc1 [PHENACYLAMINE HYDROCHLORIDE]
Activity [1]: 25%

CC[C@@H]1C(=O)OC[C@@H]1Cc1cncn1C.O=[N+]([O-])O [PILOCARPINE NITRATE]
Activity [11]: 69% | Activity [7]: Active | Activity [1]: 33% | Activity [10]: 68.5% | Activity [19]: inactive

COC(=O)[C@H]1[C@H]2C[C@@H]3c4[nH]c5cc(OC)ccc5c4CCN3C[C@H]2C[C@@H](OC(=O)c2cc(OC)c(OC)c(OC)c2)[C@@H]1OC [RESERPINE]
Activity [1]: 25%

Source: ChEMBL document CHEMBL1212701, “Identification of small molecules rescuing fragile X syndrome phenotypes in Drosophila” (2008)
